Legend:
[1] = Optical properties (absorption, emission, extinction coefficient) of BDP635 and derivative SBDPiRs; type: physicochemical
nude mice = assay: In vivo optical imaging with Compound 53; parameters: species or system mouse; conditions: for in vivo fluorescence image: 2.5 μmol/kg i.p.
Experimental: Optical imaging was performed with an IVIS Spectrum small-animal in vivo imaging system (Caliper LS). The Living Image Software v3.0 (Caliper LS) was used to analyze images and measurements of fluorescent signals. Excitation and emission wavelengths of 720 nm and 760 nm, respectively, were used to acquire in vivo fluorescent images of Compound 53 (M.W=[…]). All images were attained using a 1-s exposure time and an f/stop of 1, with a sampling of multiple angles with animal under Isoflurane anaesthesia. Animals were injected with 2.5 μmol/kg (2 mg/kg) of 53 via i.p. administration.

[2] = Photostability (photobleaching under light illumination); type: physicochemical
Experimental: (§1) Singlet oxygen generation and photostability: A singlet oxygen generation experiment on compound 53 using the indirect method of DPBF photooxidation was performed. There were strong similarities of the behavior of 53 towards DPBF with SBDPiR715. […] The photooxidation of DPBF was monitored by UV-vis spectrophotometer at 410 nm. […] Additionally, less than 30% of 53 photobleached under the harsh light illumination condition over a period of an hour, which is a strong evidence for photostability (FIG. 21).

[3] = Singlet oxygen generation, indirect method of DPBF photooxidation; conditions: DPBF photooxidation monitored at 410 nm
Experimental: as §1

[4] = test system: BALB/c mice bearing colon-26 cells (mouse colon carcinoma cells); assay: In vivo imaging with SBDPiR790; conditions: 2.5 μmol/kg i.p.
Experimental: Female Balb/c mice were purchased from NCI (Federick, Md.). Mice were housed and handled in the College of Pharmacy animal facility, University of Oklahoma Health Sciences Center, Oklahoma City, Okla. All animal experiments were approved by IACUC, University of Oklahoma Health Sciences Center (personal approval was offered). Injection solution of SBDPiR790 was prepared by solubilizing it in DMSO (4 mM), and then it was diluted with 1% Tween 80-5% dextrose solution (PBS). The solution was filtered through a 0.2 μm sterile syringe filter before i.p. injection.
BALB/c mice bearing colon-26 cells (mouse colon carcinoma cells) were used for this study. 6-8 week old Balb/c mice were shaved and depilated with hair removal cream (Nair) at the upper back. The mice were subcutaneously inoculated with colon 26 cells at the neck region with […] in 0.1 ml PBS solution. Tumors with 4-6 mm diameter size were made in a week. The in vivo Xtreme imaging system (Carestream Health, Inc.) was used in acquiring images as mice were kept under safe anaesthesia using Isoflurane. The instrumental conditions for the imaging were as follows: fluorescence mode with excitation 760 nm and emission 830 nm; exposure time 5 sec; F/stop: 2 and pixel 2×2. Images collected were then processed using the Carestream MI imaging software to equally adjusted minima and maxima scale.
All mice received 2.5 μmol/kg of SBDPiR790 (MW=636.11 g/mol) solution in PBS (0.2 ml) via i.p. injection. Images were taken at 0 (before), 15 minutes, 3, 6, and 24 hours postinjection. […] Particularly SBDPiR790 can be a practical alternative to the sole clinically approved NIR probe, ICG. The stability, and excellent photophysical properties of SBDPiR790 and its lipophilic character make it useful for varied applications including cancer diagnosis and neurological imaging taking advantage of its ability to cross the blood-brain barrier.

Row | λabs [1] | λflu [1] | ε [1] | Compound | other results
1 | 728 nm | 761 nm | 140 000 M^−1 cm^−1 | COc1cc(-c2cc3c(s2)=CC2=C(C(F)(F)F)c4cc5sc(-c6cc(OC)c(OC)c(OC)c6)cc5n4[B-](F)(F)[N+]=32)cc(OC)c1OC [SBDPiR730, 2,8-Di(3,4,5-trimethoxyphenyl)-11-trifluoromethyl-dithieno[2,3-b]-[3,2-g]-5,5-difluoro-5-bora-3a,4a-diaza-s-indacene] | –
2 | 731 nm | 755 nm | 185 000 M^−1 cm^−1 | COc1ccc(-c2cc3c(s2)=CC2=C(C(F)(F)F)c4cc5sc(-c6ccc(OC)cc6)cc5n4[B-](F)(F)[N+]=32)cc1 [SBDPiR731, 2,8-Di(4-methoxyphenyl)-11-trifluoromethyl-dithieno[2,3-b]-[3,2-g]-5,5-difluoro-5-bora-3a,4a-diaza-s-indacene] | –
3 | 733 nm | 763 nm | 125 000 M^−1 cm^−1 | F[B-]1(F)n2c(cc3sc(-c4cccs4)cc32)C(C(F)(F)F)=C2C=c3sc(-c4cccs4)cc3=[N+]21 [SBDPiR735, 2,8-Di(thiophenyl)-11-trifluoromethyl-dithieno[2,3-b]-[3,2-g]-5,5-difluoro-5-bora-3a,4a-diaza-s-indacene] | –
4 | 738 nm | 763 nm | 101 000 M^−1 cm^−1 | Oc1ccc(-c2cc3c(s2)=CC2=C(C(F)(F)F)c4cc5sc(-c6ccc(O)cc6)cc5n4[B-](F)(F)[N+]=32)cc1 [SBDPiR740, 2,8-Di(4-hydroxyphenyl)-11-trifluoromethyl-dithieno[2,3-b]-[3,2-g]-5,5-difluoro-5-bora-3a,4a-diaza-s-indacene] | –
5 | 753 nm | 785 nm | 110 000 M^−1 cm^−1 | F[B-]1(F)n2c(cc3sc(C=Cc4ccccc4)cc32)C(C(F)(F)F)=C2C=c3sc(C=Cc4ccccc4)cc3=[N+]21 [SBDPiR755, 2,8-Di(styryl)-11-trifluoromethyl-dithieno[2,3-b]-[3,2-g]-5,5-difluoro-5-bora-3a,4a-diaza-s-indacene] | –
6 | 786 nm | – | 85 000 M^−1 cm^−1 | COc1ccc(C=Cc2cc3c(s2)=CC2=C(C(F)(F)F)c4cc5sc(C=Cc6ccc(OC)cc6)cc5n4[B-](F)(F)[N+]=32)cc1 [SBDPiR790, 2,8-Di(4-(methoxy-phenyl)vinyl)-11-trifluoromethyl-dithieno[2,3-b]-[3,2-g]-5,5-difluoro-5-bora-3a,4a-diaza-s-indacene] | in vivo fluorescence emission image ([4]; 15 minutes postinjection, ex 760 nm / em 830 nm): most of the dye still remained in the peritoneal cavity; in vivo fluorescence emission image ([4]; 3 hours postinjection): all skin area showed relatively bright emission with intense bright spots in mid-body; in vivo fluorescence emission image ([4]; 6 hours postinjection): an intense emission was observed in the tumor area; in vivo fluorescence emission image ([4]; 24 hours postinjection): brighter emission was observed at the tumor site than other body
7 | 841 nm | – | – | CN(C)c1ccc(-c2cc3c(s2)=CC2=C(C(F)(F)F)c4cc5sc(-c6ccc(N(C)C)cc6)cc5n4[B-](F)(F)[N+]=32)cc1 [SBDPiR840, 2,8-Di(4-N,N,dimethylaminophenyl)-11-trifluoromethyl-dithieno[2,3-b]-[3,2-g]-5,5-difluoro-5-bora-3a,4a-diaza-s-indacene] | –

Further lines, the compound ahead of its results:

Row | Compound | λabs [1] | λflu [1] | ε [1] | other results
8 | 2,8-Di(bromo)-11-trifluoromethyl-dithieno[2,3-b]-[3,2-g]-5,5-difluoro-5-bora-3a,4a-dithio-s-indacene [BDP635] | 635 nm | 650 nm | – | –
9 | COC(=O)c1ccc(C2=C3C=c4sc(-c5ccc(OC)cc5)cc4=[N+]3[B-](F)(F)n3c2cc2sc(-c4ccc(OC)cc4)cc23)cc1 [Compound 50, 2,8-Di(4-Methoxy-phenyl)-11-benzoic acid methyl ester-dithieno[2,3-b]-[3,2-g]-5,5-difluoro-5-bora-3a,4a-diaza-s-indacene] | – | – | – | fluorescence [1]: relatively low fluorescence; 0-0 absorption ([1]; in CHCl3): 685 nm; molar extinction coefficient ([1]; in CHCl3): 85 000 M^−1 cm^−1
10 | O=C(O)COc1ccc(-c2sc3c(c2Br)=[N+]2C(=C(C(F)(F)F)c4cc5sc(-c6ccc(OCC(=O)O)cc6)c(Br)c5n4[B-]2(F)F)C=3)cc1 [Compound 53, 3,7-Dibromo-2,8-di(4-Carboxymethoxy-phenyl)-11-trifluoromethyl-dithieno[2,3-b]-[3,2-g]-5,5-difluoro-5-bora-3a,4a-diaza-s-indacene] | – | – | – | in vivo fluorescence signal (nude mice; 2.5 μmol/kg (2 mg/kg) i.p., ex 720 nm / em 760 nm): Bright fluorescence signals were detected; in vivo fluorescence image (nude mice; 5 and 10 minutes): two bright areas were observed in the mid-body; in vivo fluorescence image (nude mice; 3 hours and 6 hours): most skin showed bright emission; in vivo fluorescence image (nude mice; 12 hours): the intensity of skin was lower than the 3 hour and 6 hour images; photostability compared with m-THPC [2]: relatively better than the clinically approved m-THPC (Foscan); fraction photobleached ([2]; harsh light illumination over a period of an hour): less than 30%; singlet oxygen generation [3]: potent singlet oxygen generator
11 | F[B-]1(F)n2c(cc3sc(Oc4ccc(-c5ccccc5)cc4)cc32)C(C(F)(F)F)=C2C=c3sc(Oc4ccc(-c5ccccc5)cc4)cc3=[N+]21 [SBDPiR650, 2,8-Di(biphenyl-4-yloxy)-11-trifluoromethyl-dithieno[2,3-b]-[3,2-g]-5,5-difluoro-5-bora-3a,4a-diaza-s-indacene] | 649 nm | 660 nm | 83 000 M^−1 cm^−1 | –
12 | COc1ccc(Oc2cc3c(s2)=CC2=C(C(F)(F)F)c4cc5sc(Oc6ccc(OC)cc6)cc5n4[B-](F)(F)[N+]=32)cc1 [SBDPiR650_OMe, 2,8-Di(4-methoxyphenoxy)-11-trifluoromethyl-dithieno[2,3-b]-[3,2-g]-5,5-difluoro-5-bora-3a,4a-diaza-s-indacene] | 649 nm | 660 nm | 118 000 M^−1 cm^−1 | –
13 | F[B-]1(F)n2c(cc3sc(Sc4ccccc4)cc32)C(C(F)(F)F)=C2C=c3sc(Sc4ccccc4)cc3=[N+]21 [SBDPiR700, 2,8-Di(thiophenoxy)-11-trifluoromethyl-dithieno[2,3-b]-[3,2-g]-5,5-difluoro-5-bora-3a,4a-diaza-s-indacene] | 694 nm | 715 nm | 105 000 M^−1 cm^−1 | –

Reference: patent publication US9611281B2, “BODIPY derivatives and methods of synthesis and use thereof” (The Board of Regents of the University of Oklahoma, priority 2013, dated 2017)
